From US6855312B1, “Hair care composition” (The Boots Company PLC, priority 1999, dated 2005)

System: Linoleic acid (model skin and hair lipid)
Test: UVA/B-induced lipid peroxidation of linoleic acid, lipid hydroperoxides by colorimetric test (In Vitro Tests)
Type: biochemical
Conditions: first series; compared to irradiated vehicle alone; broad spectrum UVA/B
Protocol: Linoleic acid (model skin and hair lipid) was incubated in the presence of various antioxidants and antoxidant combinations and was exposed to broad spectrum UVA/B to induce oxidation of the lipid. Following extraction of the lipid into methanol, the amount of lipid hydroperoxides (free radical generated damage) formed were measured with a specific colorimetric biochemical test. The degree of inhibition afforded by the antioxidants was thus measured and compared to irradiated vehicle controls.
The percentage inhibition of free radical mediated lipid peroxidation when compared to the vehicle alone are given below.
In a second series of experiments using antoxidants collected in a later season gave the following results.

O=C1O[C@H]([C@@H](O)CO)C([O-])=C1OP(=O)([O-])[O-].[Na+].[Na+].[Na+] [Sodium ascorbyl phosphate]
% inhibition of free radical mediated lipid peroxidation (observed): 21%
